Experiments:
[1] = Preliminary investigations on post herpetic neuralgia pain; assay type: in vivo
CICR pathway = conditions: cited from earlier work
MMP = test: Preliminary data in atopic dermatitis pathways, MMP activity
Text: Other molecular pathways activated in atopic dermatitis include matrix metalloproteinases (MMPs). MMPs are a family of enzymes capable of breaking down extracellular matrix proteins, including connective tissues.

[2] = system: synchronous neurotransmitter release in response to TCN activation; conditions: strontium substitutes for calcium; cited from earlier work
TCN activation = test: Burning pain and stinging from highly acidic chemical peel (70% glycolic acid, pH 0.6); assay type: in vivo; conditions: strontium mixed with the acid (70% glycolic acid, pH 0.6)
Method: Nociceptors also have a CaSR that inhibits nociceptor activation when the extracellular concentration of calcium is raised above normal, or if a similar concentration of strontium is administered. […] When strontium is mixed with the acid, burning pain and stinging is suppressed by 80% or more so that any remaining sensory irritation is not bothersome.

TNF-alpha = TNF-alpha (Homo sapiens, UniProt P01375); test: Preliminary investigations on the psoriasis inflammatory/keratinocyte cycle, TNF-alpha
Sequence of TNF-alpha (P01375 77-233 limits assumed, species assumed): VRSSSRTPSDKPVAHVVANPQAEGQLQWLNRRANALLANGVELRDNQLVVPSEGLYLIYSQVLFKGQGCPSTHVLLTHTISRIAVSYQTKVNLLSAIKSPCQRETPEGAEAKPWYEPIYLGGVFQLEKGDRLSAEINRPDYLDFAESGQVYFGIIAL
Text: (§1) The present disclosure is premised on the belief that the psoriatic cycle begins with a triggering event such as trauma, infection, or stress that causes the keratinocytes to become stressed and activates dendritic cells. The dendritic cells release IL-12 and IL-23, which in turn stimulate Th17 and Th1 cells […]. Th17 releases […] which stimulates inflammation. Similarly, Th1 cells release […] which stimulates inflammation. Th1 cells also stimulate keratinocyte division leading to the formation of plaques. The activation of immune cells releases cytokines which also activates keratinocytes. The interaction between the immune system and keratinocyte activation becomes a self-feeding cycle.
(§2) Applicants' preliminary investigations indicate that strontium can break up the inflammatory/keratinocyte cycle of psoriasis, specifically by blocking the IL-17 and TNF-alpha. By targeting and blocking the two main pathways that activated dendritic cells use to trigger a psoriatic episode, strontium has immense potential as a therapeutic for psoriasis.

TLR-4 = TLR-4 (Homo sapiens, UniProt O00206); test: Preliminary data in atopic dermatitis pathways, TLR-4
Sequence of TLR-4 (O00206 24-839, species assumed): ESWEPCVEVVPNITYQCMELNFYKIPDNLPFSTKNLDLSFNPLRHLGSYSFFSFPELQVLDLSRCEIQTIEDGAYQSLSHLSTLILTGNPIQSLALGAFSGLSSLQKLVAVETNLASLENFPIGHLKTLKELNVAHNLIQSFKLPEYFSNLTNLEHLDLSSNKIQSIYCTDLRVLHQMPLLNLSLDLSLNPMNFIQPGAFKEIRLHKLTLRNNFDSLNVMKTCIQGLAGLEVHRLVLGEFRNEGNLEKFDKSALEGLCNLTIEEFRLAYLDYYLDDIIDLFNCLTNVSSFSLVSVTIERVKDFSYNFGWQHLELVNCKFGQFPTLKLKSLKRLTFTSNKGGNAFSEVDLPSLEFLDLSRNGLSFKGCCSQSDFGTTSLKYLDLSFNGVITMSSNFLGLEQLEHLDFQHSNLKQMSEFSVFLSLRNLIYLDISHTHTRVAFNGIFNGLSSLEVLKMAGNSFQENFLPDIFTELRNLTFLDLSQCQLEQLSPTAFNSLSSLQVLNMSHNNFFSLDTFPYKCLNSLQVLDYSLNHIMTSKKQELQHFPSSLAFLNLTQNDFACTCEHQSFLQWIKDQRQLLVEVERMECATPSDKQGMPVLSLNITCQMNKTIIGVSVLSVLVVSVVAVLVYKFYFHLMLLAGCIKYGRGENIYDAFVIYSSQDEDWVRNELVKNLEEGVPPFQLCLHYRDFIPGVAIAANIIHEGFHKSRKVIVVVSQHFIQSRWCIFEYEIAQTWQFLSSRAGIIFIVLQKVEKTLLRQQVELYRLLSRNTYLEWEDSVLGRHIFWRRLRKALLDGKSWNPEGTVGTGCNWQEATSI
Sequence of TLR-4 (Q9Y6Y9 17-160 partner limits assumed, species assumed): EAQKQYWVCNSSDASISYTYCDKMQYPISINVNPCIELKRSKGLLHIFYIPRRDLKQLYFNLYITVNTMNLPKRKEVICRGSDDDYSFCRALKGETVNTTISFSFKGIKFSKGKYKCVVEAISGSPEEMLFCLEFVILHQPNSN
Text: The present disclosure is premised on the belief that people with atopic dermatitis have higher levels of Staphylococcus aureus on their skin. The higher bacterial levels trigger an immune response via the toll-like receptors, in particular toll-like receptor 4 (TLR-4). The present disclosure is also premised on the belief that continual activation of TLR-4 contributes to the chronic nature of atopic dermatitis.

HSV1 = test: Preliminary investigations on HSV1 symptoms; assay type: in vivo
Text: Without wishing to be bound by any one theory, it is believed that strontium's ability to block NF-Kappa B contributes to minimizing the symptoms associated with an active infection. As mentioned above, HSV 1 and 2 require the activation of NF-Kappa B for de novo virus synthesis. By blocking NF-Kappa B, strontium is essentially stopping the infection at an early stage.

IL-17 = target: T1, IL-17 (Homo sapiens, UniProt Q16552); test: Preliminary investigations on the psoriasis inflammatory/keratinocyte cycle, IL-17
T1 sequence (Q16552 24-155): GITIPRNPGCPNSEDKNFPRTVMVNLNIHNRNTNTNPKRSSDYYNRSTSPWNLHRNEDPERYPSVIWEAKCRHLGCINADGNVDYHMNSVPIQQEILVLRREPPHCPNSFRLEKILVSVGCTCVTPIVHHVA
Text: as §1, §2

## [Sr+2] [strontium, Strontium]
[1]
  pain associated with PHN: can reduce or block
CICR pathway
  ability to induce CICR relative to calcium: over a hundred-fold less active than calcium
CICR pathway; in the ER
  concentration reached in the ER, greater than calcium: more than 150%
MMP
  MMP activity: can block
[2]
  reduction of amplitude of synchronous neurotransmitter release: more than 90%
TCN activation
  suppression of burning pain and stinging: ≥ 80%
TNF-alpha
  blocking of TNF-alpha: blocking
TLR-4
  TLR-4 activity: can block
HSV1
  pain, itch, and rash/blister formation associated with HSV1: can reduce and or eliminate
IL-17
  blocking of IL-17: blocking
